Test results published in patent publication US10975016B2, “Solvent compounds for use as glycol ether replacements” (TBF ENVIRONMENTAL TECHNOLOGY INC., priority 2017, dated 2021).

Columns and labels:
[1] = VOC (calculated) of water-based paint formulas; assay type: physicochemical; conditions: water-based paints, substituted for propylene glycol
Experimental: Bis(2-ButoxyEthyl Carbonate) was tested in a number of water-based flat paints, as follows. Water was added to a container and the additives were added. The container was placed under a high speed disperser and mixed under slow speed. Natrosol™ hydroxyethylcellulose was added slowly and allowed to mix for 10 minutes increasing speed as needed. The pigments were then added, slowly increasing speed and water as needed. After the pigments were added, the speed was increased to about 2800 rpms. After 10 to 15 minutes the speed was reduced to about 1000 rpms. The latex was added slowly into the vortex. The rest of the water and other additives (depending on the formulation) were then added and allowed to mix for 5 minutes.
In some tests, bis(2-ButoxyEthyl Carbonate) was substituted for propylene glycol to evaluate its effectiveness in replacing propylene glycol to create a lower VOC and lower toxicity material.

[2] = XBC vs Dipropylene Glycol Methyl Ether (DPM) in acrylic modified epoxy ester based paint: physical and coating properties; conditions: for Specific Gravity: acrylic modified epoxy ester (Epotuf 38-698) based paint; for VOC (Without Water) / Viscosity / Volume Solid % / Weight Solid %: acrylic modified epoxy ester based paint
Experimental: The properties of XBC4, in comparison to dipropylene glycol methyl ether (DPM), in an acrylic-modified epoxy ester-based paint were determined to be as follows: […]

[3] = Physical/chemical properties of XBC4 (GlykoSol)

## CCCCOCCOC(=O)OCCOCCCC [XBC4, bis(2-ButoxyEthyl Carbonate)]
[1]
  VOC of paint after replacement of propylene glycol: far lower or zero (0) VOC materials
[2]
  Specific Gravity: 1.23 g/cm3
  VOC (Without Water): 34 g/L
  Viscosity: 90 KU
  Volume Solid %: 35.5%
  Weight Solid %: 46.9%
[3]
  Auto Ignition Temp: 305 (581° F.) ° C.
  Boiling Point: 297 (566.6° F.) ° C.
  Butyl Cellosolve Solubility: Soluble
  Clarity: Clear
  Colour (Alpha, max): 10 (Clear)
  Flashpoint: 146.1 (295° F.) ° C.
  Odor: No Odor
  Partial Coefficient (Range): 1.9-3.0
  Volatility (%): 100%
  Water Solubility: Not Soluble
[3]; @15.5° C.
  Specific Gravity: 0.985
[3]; @ 20° C.
  Density: 0.980 (8.22 lbs/gal) g/mL
[3]; @ 25° C.
  Solubility in H2O: Partially Soluble
  Vapour Pressure: 0.008 mm Hg
  Viscosity: 0.60 cP
[3]; ASTM 313-91
  VOC: 0 g/L
[3]; Air = 1
  Vapour Density (Air = 1): 0.95
[3]; Range 115-240°
  TGA Weight Loss: 99.47%
[3]; n-Butyl Acetate = 1
  Evaporation Rate (n-Butyl Acetate = 1): 0.01

## COC(C)COC(C)CO (stereo not drawn) [DPM, dipropylene glycol methyl ether, reference compound]
[2]
  Specific Gravity: 1.23 g/cm3
  VOC (Without Water): 110 g/L
  Viscosity: 90 KU
  Volume Solid %: 35.5%
  Weight Solid %: 46.9%
